Blank lines part the entries; values can stand above or below the compound they belong to. Active and inactive are the calls of the source. The rule behind the calls is not given here.
How the values were obtained:
[1] = target: T1, Taste receptor type 2 member 16 (Homo sapiens) (UniProt Q9NYV7); assay: Activation of full-length human TAS2R16 expressed in HEK293T/Galpha16-gustducin 44 cells assessed as effect on calcium flux by measuring deltaF/F0 ratio in presence of 4-(2,2,3-trimethylcyclo-pentyl)butanamide) by Fluo-4 dye based FLIPR assay; assay type: functional, cell-based
T1 sequence (whole entry): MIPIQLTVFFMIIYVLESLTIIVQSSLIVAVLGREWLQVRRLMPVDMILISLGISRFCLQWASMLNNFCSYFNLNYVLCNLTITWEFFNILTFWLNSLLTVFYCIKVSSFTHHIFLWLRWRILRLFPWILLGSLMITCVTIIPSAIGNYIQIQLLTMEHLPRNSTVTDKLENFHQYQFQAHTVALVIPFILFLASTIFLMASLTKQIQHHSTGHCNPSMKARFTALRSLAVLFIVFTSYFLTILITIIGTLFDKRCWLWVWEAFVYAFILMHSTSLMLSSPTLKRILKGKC

[2] = target: T1, Taste receptor type 2 member 16 (Homo sapiens); assay: (§1) Activation of full-length human TAS2R16 expressed in HEK293T/Galpha16-gustducin 44 cells assessed as effect on calcium flux by measuring deltaF/F0 ratio at 10 mM in presence of (E)-4-(2,2,3-trimethylcyclopent-3-enyl)but-2-enoic acid by Fluo-4 dye based FLIPR assay; assay type: functional, cell-based
[3] = target: T1, Taste receptor type 2 member 16 (Homo sapiens); assay: Activation of full-length human TAS2R16 expressed in HEK293T/Galpha16-gustducin 44 cells assessed as effect on calcium flux by measuring deltaF/F0 ratio at 0.625 mM in presence of (E)-4-(2,2,3-trimethylcyclopent-3-enyl)but-2-enoic acid by Fluo-4 dye based FLIPR assay; assay type: functional, cell-based
[4] = target: T1, Taste receptor type 2 member 16 (Homo sapiens); assay: Activation of full-length human TAS2R16 expressed in HEK293T/Galpha16-gustducin 44 cells assessed as effect on calcium flux by measuring deltaF/F0 ratio at 2.5 mM in presence of (E)-4-(2,2,3-trimethylcyclopent-3-enyl)but-2-enoic acid by Fluo-4 dye based FLIPR assay; assay type: functional, cell-based
[5] = target: T1, Taste receptor type 2 member 16 (Homo sapiens); assay: Activation of full-length human TAS2R16 expressed in HEK293T/Galpha16-gustducin 44 cells assessed as effect on calcium flux by measuring deltaF/F0 ratio at 0.0781 mM in presence of (E)-4-(2,2,3-trimethylcyclopent-3-enyl)but-2-enoic acid by Fluo-4 dye based FLIPR assay; assay type: functional, cell-based
[6] = target: T1, Taste receptor type 2 member 16 (Homo sapiens); assay: Activation of full-length human TAS2R16 expressed in HEK293T/Galpha16-gustducin 44 cells assessed as effect on calcium flux by measuring deltaF/F0 ratio at 0.1563 mM in presence of (E)-4-(2,2,3-trimethylcyclopent-3-enyl)but-2-enoic acid by Fluo-4 dye based FLIPR assay; assay type: functional, cell-based
[7] = target: T1, Taste receptor type 2 member 16 (Homo sapiens); assay: Activation of full-length human TAS2R16 expressed in HEK293T/Galpha16-gustducin 44 cells assessed as effect on calcium flux by measuring deltaF/F0 ratio at 0.0391 mM in presence of (E)-4-(2,2,3-trimethylcyclopent-3-enyl)but-2-enoic acid by Fluo-4 dye based FLIPR assay; assay type: functional, cell-based
[8] = target: T1, Taste receptor type 2 member 16 (Homo sapiens); assay: Activation of full-length human TAS2R16 expressed in HEK293T/Galpha16-gustducin 44 cells assessed as effect on calcium flux by measuring deltaF/F0 ratio at 5 mM in presence of (E)-4-(2,2,3-trimethylcyclopent-3-enyl)but-2-enoic acid by Fluo-4 dye based FLIPR assay; assay type: functional, cell-based
[9] = target: T1, Taste receptor type 2 member 16 (Homo sapiens); assay: Activation of full-length human TAS2R16 expressed in HEK293T/Galpha16-gustducin 44 cells assessed as effect on calcium flux by measuring deltaF/F0 ratio at 0.3125 mM in presence of (E)-4-(2,2,3-trimethylcyclopent-3-enyl)but-2-enoic acid by Fluo-4 dye based FLIPR assay; assay type: functional, cell-based
[10] = target: T2, Taste receptor type 2 member 31 (Homo sapiens) (UniProt P59538); assay: Agonist activity at full-length human TAS2R44 expressed in HEK293T/Galpha16-gustducin 44 cells assessed as effect on calcium flux by measuring deltaF/F0 ratio in presence of 4-(2,2,3-trimethylcyclo-pentyl)butanamide) by Fluo-4 dye based FLIPR assay; assay type: functional, cell-based
T2 sequence (whole entry): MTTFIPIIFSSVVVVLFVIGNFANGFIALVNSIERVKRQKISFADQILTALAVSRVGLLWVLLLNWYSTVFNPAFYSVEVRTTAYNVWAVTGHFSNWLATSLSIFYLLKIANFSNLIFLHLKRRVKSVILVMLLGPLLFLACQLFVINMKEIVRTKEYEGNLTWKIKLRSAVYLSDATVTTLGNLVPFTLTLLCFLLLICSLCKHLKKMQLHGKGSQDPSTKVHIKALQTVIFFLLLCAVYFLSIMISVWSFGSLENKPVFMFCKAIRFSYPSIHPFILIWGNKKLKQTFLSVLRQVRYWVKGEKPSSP

[11] = target: T2, Taste receptor type 2 member 31 (Homo sapiens); assay: as §1, with “TAS2R44” for “TAS2R16”, “12.5” for “10”, “assay (reference value: 0.051 +/- 0.004)” for “assay”; assay type: functional, cell-based
[12] = target: T2, Taste receptor type 2 member 31 (Homo sapiens); assay: as §1, with “TAS2R44” for “TAS2R16”, “0.7813” for “10”, “assay (reference value: 0.038 +/- 0.042)” for “assay”; assay type: functional, cell-based
[13] = tested on: HEK-293T; assay: Effect on calcium flux in HEK293T/Galpha16-gustducin 44 cells assessed as deltaF/F0 ratio at 100 mM in presence of (E)-4-(2,2,3-trimethylcyclopent-3-enyl)but-2-enoic acid, by Fluo-4 dye based FLIPR assay; assay type: functional, Homo sapiens
[14] = target: T2, Taste receptor type 2 member 31 (Homo sapiens); assay: as §1, with “TAS2R44” for “TAS2R16”, “0.3906” for “10”, “assay (reference value: 0.046 +/- 0.048)” for “assay”; assay type: functional, cell-based
[15] = target: T3, Taste receptor type 2 member 1 (Homo sapiens) (UniProt Q9NYW7); assay: Activation of full-length human TAS2R1 expressed in HEK293T/Galpha16-gustducin 44 cells assessed as effect on calcium flux by measuring deltaF/F0 ratio by Fluo-4 dye based FLIPR assay; assay type: functional, cell-based
T3 sequence (whole entry): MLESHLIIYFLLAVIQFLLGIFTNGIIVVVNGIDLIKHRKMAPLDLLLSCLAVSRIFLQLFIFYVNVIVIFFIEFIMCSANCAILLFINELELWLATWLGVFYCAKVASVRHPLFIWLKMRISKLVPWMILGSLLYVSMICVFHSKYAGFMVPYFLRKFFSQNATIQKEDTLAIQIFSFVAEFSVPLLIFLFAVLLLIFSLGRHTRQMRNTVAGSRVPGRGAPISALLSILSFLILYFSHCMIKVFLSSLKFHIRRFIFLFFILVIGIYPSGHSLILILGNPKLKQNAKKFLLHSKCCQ

[16] = organism: Homo sapiens; assay: Induction of bitter sensitivity in bitter sensitive human panelists tasting solution containing 3 mM compound in presence of 13 ppm (E)-4-(2,2,3-trimethylcyclopent-3-enyl)but-2-enoic acid; assay type: functional, organism-based
[17] = target: T2, Taste receptor type 2 member 31 (Homo sapiens); assay: as §1, with “TAS2R44” for “TAS2R16”, “3.125” for “10”, “assay (reference value: 0.030 +/- 0.042)” for “assay”; assay type: functional, cell-based
[18] = target: T4, Taste receptor type 2 member 46 (Homo sapiens) (UniProt P59540); assay: Activation of full-length human TAS2R46 expressed in HEK293T/Galpha16-gustducin 44 cells assessed as effect on calcium flux by measuring deltaF/F0 ratio by Fluo-4 dye based FLIPR assay; assay type: functional, cell-based
T4 sequence (whole entry): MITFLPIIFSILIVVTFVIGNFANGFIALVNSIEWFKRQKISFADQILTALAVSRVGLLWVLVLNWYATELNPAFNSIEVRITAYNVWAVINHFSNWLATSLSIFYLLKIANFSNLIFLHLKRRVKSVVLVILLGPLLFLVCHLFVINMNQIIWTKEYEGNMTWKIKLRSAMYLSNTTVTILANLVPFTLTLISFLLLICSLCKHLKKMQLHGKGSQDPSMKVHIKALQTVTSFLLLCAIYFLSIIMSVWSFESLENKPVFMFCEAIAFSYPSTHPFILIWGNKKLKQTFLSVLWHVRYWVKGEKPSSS

[19] = target: T2, Taste receptor type 2 member 31 (Homo sapiens); assay: as §1, with “TAS2R44” for “TAS2R16”, “6.25” for “10”, “assay (reference value: 0.027 +/- 0.029)” for “assay”; assay type: functional, cell-based
[20] = target: T2, Taste receptor type 2 member 31 (Homo sapiens); assay: Activation of full-length human TAS2R44 expressed in HEK293T/Galpha16-gustducin 44 cells assessed as effect on calcium flux by measuring deltaF/F0 ratio at 50 mM in presence of (E)-4-(2,2,3-trimethylcyclopent-3-enyl)but-2-enoic acid by Fluo-4 dye based FLIPR assay (reference value: 0.192 +/- 0.011); assay type: functional, cell-based
[21] = organism: Homo sapiens; assay: Induction of bitter sensitivity in bitter sensitive human panelists tasting solution containing 3 mM compound in absence of 13 ppm (E)-4-(2,2,3-trimethylcyclopent-3-enyl)but-2-enoic acid; assay type: functional, organism-based
[22] = target: T2, Taste receptor type 2 member 31 (Homo sapiens); assay: Activation of full-length human TAS2R44 expressed in HEK293T/Galpha16-gustducin 44 cells assessed as effect on calcium flux by measuring deltaF/F0 ratio at 25 mM in presence of (E)-4-(2,2,3-trimethylcyclopent-3-enyl)but-2-enoic acid by Fluo-4 dye based FLIPR assay (reference value: 0.110 +/- 0.019); assay type: functional, cell-based
[23] = target: T5, Taste receptor type 2 member 10 (Homo sapiens) (UniProt Q9NYW0); assay: Activation of full-length human TAS2R10 expressed in HEK293T/Galpha16-gustducin 44 cells assessed as effect on calcium flux by measuring deltaF/F0 ratio by Fluo-4 dye based FLIPR assay; assay type: functional, cell-based
T5 sequence (whole entry): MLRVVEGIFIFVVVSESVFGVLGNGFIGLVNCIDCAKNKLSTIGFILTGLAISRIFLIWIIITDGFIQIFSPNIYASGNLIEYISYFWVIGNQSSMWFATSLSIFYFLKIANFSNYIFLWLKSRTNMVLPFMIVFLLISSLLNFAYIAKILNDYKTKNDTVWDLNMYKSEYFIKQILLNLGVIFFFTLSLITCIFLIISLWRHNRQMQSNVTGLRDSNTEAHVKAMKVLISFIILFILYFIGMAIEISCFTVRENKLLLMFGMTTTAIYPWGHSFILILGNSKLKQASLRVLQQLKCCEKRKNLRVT

[24] = target: T6, Taste receptor type 2 member 31 (Homo sapiens, UniProt P59538); assay: Agonist activity at full-length human TAS2R44 expressed in HEK293T/Galpha16-gustducin 44 cells assessed as effect on calcium flux by measuring deltaF/F0 ratio in presence of (E)-4-(2,2,3-trimethylcyclopent-3-enyl)but-2-enoic acid by Fluo-4 dye based FLIPR assay; assay type: functional, cell-based
T6 sequence (P59538 whole entry): T2 sequence (whole entry)

Activity [1]: Active | Ratio [2]: 2.83 | Ratio [3]: 2.14 | Ratio [4]: 2.48 | Ratio [5]: 0.108 | Ratio [6]: 0.702 | Ratio [7]: -0.013 | Ratio [8]: 2.65 | Ratio [9]: 1.55
SMILES: OC[C@H]1O[C@@H](Oc2ccccc2)[C@H](O)[C@@H](O)[C@@H]1O

Activity [10]: Active | Ratio [11]: -0.015 | Ratio [12]: 0.01 | Ratio [14]: 0.011 | Activity [15]: Dose-dependent effect | Ratio [17]: 0.005 | Activity [18]: Dose-dependent effect | Ratio [19]: 0 | Ratio [20]: -0.025 | Ratio [22]: -0.035 | Activity [23]: Dose-dependent effect | EC50 [24]: Not Active
SMILES: OC[C@H]1O[C@H](O[C@]2(CCl)O[C@H](CCl)[C@@H](O)[C@@H]2O)[C@H](O)[C@@H](O)[C@H]1Cl [SUCRALOSE]
Ratio [13]: -0.175 | Activity [16]: inactive | Activity [21]: Active
